From patent US20260200885A1, “BENZOPYRONE COMPOUNDS AS WELL AS PREPARATION METHOD THEREFOR AND USE THEREOF” (CHENGDU DI’AO JIUHONG PHARMACEUTICAL FACTORY, priority 2022, published 2026) come the findings set out here.

As a reminder, the IC50 is the concentration that gives 50% inhibition.

The subject of one assay is A2780 cells. The assay is described as follows: Determination of cell activity (CellTiter-Glo Luminescent Cell Viability Assay). The assay is classed as cell-based. The following applies: Homo sapiens, 168 h; A2780 cells, 7 days treatment, CellTiter-Glo; read-out: IC50. On the procedure:
To examine the effect of compounds on cell viability, ATP was directly quantified using the CellTiter-Glo Luminescent Cell Viability Assay (Promega) to determine the number of viable cells.
Cell density was selected based on optimal signal intensity and growth curve for the inoculation of A2780 cells. The cells were incubated at 37° C. and 5% C02 overnight. Cells were treated with blank group, DMSO group and compound group, respectively, at 37° C. and 5% C02 for 7 days. The prepared solutions were added to cell wells according to the instructions of CellTiter-Glo (Promega), and shaken at a speed of 400 g for 2 min. Then, the solutions were centrifuged at 1000 g for 2 min and incubated at rest for 30 min to ensure a complete reaction. […] readings were taken using a multi-label microplate reader (Perkin Elmer) to calculate IC50 values.
`C[C@@H](Oc1ccc2c(-c3ccc(F)cc3Cl)cc(=O)oc2c1)C(=O)c1ccccc1C(=O)O` [Compound A1-1-1]: the IC50 was in the range of 100 to 1000 nM. Same read-out and setting: next, `CC(Oc1ccc2c(-c3ccccc3F)cc(=O)oc2c1)C(=O)c1cccc(C(=O)O)c1` (stereo not shown) [Compound A-1-2-1-1]: 100 to 1000 nM. With `CC(Oc1ccc2c(-c3ccccc3Cl)cc(=O)oc2c1)C(=O)c1cccc(C(=O)O)c1` (stereo not shown) [Compound A-1-2-1-2], the IC50 was 20 to 100 nM. As to `CC(Oc1ccc2c(-c3ccccc3Br)cc(=O)oc2c1)C(=O)c1cccc(C(=O)O)c1` (stereo not shown) [Compound A-1-2-1-3], the IC50 lay in the range of 20 to 100 nM. On to `COc1ccccc1-c1cc(=O)oc2cc(OC(C)C(=O)c3cccc(C(=O)O)c3)ccc12` (stereo not shown) [Compound A-1-2-1-8], for which the IC50 lay in the range of 100 to 1000 nM. In the case of `CNC(=O)c1cccc(C(=O)C(C)Oc2ccc3c(-c4ccc(F)cc4Cl)cc(=O)oc3c2)c1` (stereo not shown) [Compound A-1-2-1-35], the IC50 fell in the range of 20 to 100 nM. Still for that read-out and setting: then `CC(Oc1ccc2c(-c3ccc(F)cc3Cl)cc(=O)oc2c1)C(=O)c1cccc(C(N)=O)c1` (stereo not shown) [Compound A-1-2-1-36], with 20 to 100 nM. Still for that read-out and setting: then `CC(Oc1ccc2c(-c3ccc(F)cc3Cl)cc(=O)oc2c1)C(=O)c1ccccc1` (stereo not shown) [Compound A-1-2-1-70], with 20 to 100 nM; and `CC(Oc1ccc2c(-c3ccc(F)cc3Cl)cc(=O)oc2c1)C(=O)c1cccc(F)c1` (stereo not shown) [Compound A-1-2-1-71], with 20 to 100 nM; and `CC(Oc1ccc2c(-c3ccc(F)cc3Cl)cc(=O)oc2c1)C(=O)c1cccc(Cl)c1` (stereo not shown) [Compound A-1-2-1-72], with 100 to 1000 nM. With `CC(Oc1ccc2c(-c3ccc(F)cc3Cl)cc(=O)oc2c1)C(=O)c1cccc(Br)c1` (stereo not shown) [Compound A-1-2-1-73], the IC50 fell in the range of 100 to 1000 nM. Still for that read-out and setting: next, `Cc1cccc(C(=O)C(C)Oc2ccc3c(-c4ccc(F)cc4Cl)cc(=O)oc3c2)c1` (stereo not shown) [Compound A-1-2-1-75]: 20 to 100 nM. On the same count and under the same terms, then `COc1cccc(C(=O)C(C)Oc2ccc3c(-c4ccc(F)cc4Cl)cc(=O)oc3c2)c1` (stereo not shown) [Compound A-1-2-1-76], with 100 to 1000 nM; and `CC(Oc1ccc2c(-c3ccc(F)cc3Cl)cc(=O)oc2c1)C(=O)c1ccc(N)cc1` (stereo not shown) [Compound A-1-2-1-78], with < 20 nM. Same read-out and setting: then `CNc1ccc(C(=O)C(C)Oc2ccc3c(-c4ccc(F)cc4Cl)cc(=O)oc3c2)cc1` (stereo not shown) [Compound A-1-2-1-79], with 20 to 100 nM.

For the compound `CC(Oc1ccc2c(-c3ccc(F)cc3Cl)cc(=O)oc2c1)C(=O)c1ccc(N(C)C)cc1` (stereo not shown) [Compound A-1-2-1-80], the IC50 was in the range of 20 to 100 nM.

`CC(Oc1ccc2c(-c3ccc(F)cc3Cl)cc(=O)oc2c1)C(=O)c1ccc(O)cc1` (stereo not shown) [Compound A-1-2-1-82]: the IC50 is < 20 nM. Still for that read-out and setting: next, `CC(=O)Oc1ccc(C(=O)C(C)Oc2ccc3c(-c4ccc(F)cc4Cl)cc(=O)oc3c2)cc1` (stereo not shown) [Compound A-1-2-1-83]: < 20 nM.

Regarding `CC(=O)Nc1ccc(C(=O)C(C)Oc2ccc3c(-c4ccc(F)cc4Cl)cc(=O)oc3c2)cc1` (stereo not shown) [Compound A-1-2-1-84], the IC50 is < 20 nM.

Regarding `CC(Oc1ccc2c(-c3ccc(F)cc3Cl)cc(=O)oc2c1)C(=O)c1cccc([N+](=O)[O-])c1` (stereo not shown) [Compound A-1-2-1-89], the IC50 was 100 to 1000 nM. Same read-out and setting: then `CC(Oc1ccc2c(-c3ccc(F)cc3Cl)cc(=O)oc2c1)C(=O)c1cccc(C#N)c1` (stereo not shown) [Compound A-1-2-1-90], with 20 to 100 nM. Same read-out and setting: then `Cc1ccccc1-c1cc(=O)oc2cc(OC(C)C(=O)c3cccc(C(=O)O)c3)ccc12` (stereo not shown) [Compound A-1-2-1-98], with < 20 nM. Same read-out and setting: next, `CC(Oc1ccc2c(-c3ccccc3)cc(=O)oc2c1)C(=O)c1cccc(C(=O)O)c1` (stereo not shown) [Compound A-1-2-1-99]: 100 to 1000 nM; `Cc1cccc(-c2cc(=O)oc3cc(OC(C)C(=O)c4cccc(C(=O)O)c4)ccc23)c1` (stereo not shown) [Compound A-1-2-1-100]: 100 to 1000 nM; `CCc1ccccc1-c1cc(=O)oc2cc(OC(C)C(=O)c3cccc(C(=O)O)c3)ccc12` (stereo not shown) [Compound A-1-2-1-101]: 100 to 1000 nM. Take `C=Cc1ccccc1-c1cc(=O)oc2cc(OC(C)C(=O)c3cccc(C(=O)O)c3)ccc12` (stereo not shown) [Compound A-1-2-1-103]: the IC50 was in the range of 100 to 1000 nM. Same read-out and setting: then `CC(=O)NCCc1ccc(C(=O)C(C)Oc2ccc3c(-c4ccc(F)cc4Cl)cc(=O)oc3c2)cc1` (stereo not shown) [Compound A-1-2-1-104], with < 20 nM; and `CC(Oc1ccc2cc(-c3ccccc3)c(=O)oc2c1)C(=O)N1CCCC(C#N)C1` (stereo not shown) [Compound A-1-2-2-2], with > 1000 nM. As to `CC(Oc1ccc2c(C3CCCCC3)cc(=O)oc2c1)C(=O)c1cccc(C(=O)O)c1` (stereo not shown) [Compound A-1-2-6-2], the IC50 was 100 to 1000 nM. On the same count and under the same terms, next, `CC(Oc1ccc2c(-c3cccnc3)cc(=O)oc2c1)C(=O)N1CCCC(C#N)C1` (stereo not shown) [Compound A-1-2-6-23]: > 1000 nM. Same read-out and setting: then `CC(Oc1ccc2c(-c3ccncc3)cc(=O)oc2c1)C(=O)N1CCCC(C#N)C1` (stereo not shown) [Compound A-1-2-6-24], with > 1000 nM; and `CC(Oc1ccc2c(-c3ccc(F)cc3Cl)cc(=O)oc2c1)C(=O)C1CCN(C)CC1` (stereo not shown) [Compound A-1-7-1-1], with 100 to 1000 nM. Same read-out and setting: then `CC(Oc1ccc2c(-c3ccc(F)cc3Cl)cc(=O)oc2c1)C(=O)C1CCN(C(=O)C(Cl)Cl)CC1` (stereo not shown) [Compound A-1-7-1-3], with 20 to 100 nM; and `CC(Oc1ccc2c(-c3ccc(F)cc3Cl)cc(=O)oc2c1)C(=O)C1CCN(CCO)CC1` (stereo not shown) [Compound A-1-7-1-4], with 100 to 1000 nM; and `CC(Oc1ccc2c(-c3ccc(F)cc3Cl)cc(=O)oc2c1)C(=O)[C@H]1CCCNC1` (stereo partly shown) [Compound A-1-8-1-1], with 100 to 1000 nM. On to `CC(Oc1ccc2c(-c3ccc(F)cc3Cl)cc(=O)oc2c1)C(=O)[C@@H]1CCCNC1` (stereo partly shown) [Compound A-1-8-1-2], for which the IC50 lay in the range of 100 to 1000 nM.

For the compound `CC(Oc1ccc2c(-c3ccc(F)cc3Cl)cc(=O)oc2c1)C(=O)c1cc[nH]c1` (stereo not shown) [Compound A-1-10-1-5], the concentration for half-maximal inhibition (IC50) is < 20 nM. With `CC(Oc1ccc2c(-c3ccc(F)cc3Cl)cc(=O)oc2c1)C(=O)c1ccoc1` (stereo not shown) [Compound A-1-10-1-6], the IC50 lay in the range of 20 to 100 nM.

`CC(Oc1ccc2c(-c3ccc(F)cc3Cl)cc(=O)oc2c1)C(=O)c1ccsc1` (stereo not shown) [Compound A-1-10-1-7]: the IC50 fell in the range of 20 to 100 nM. Regarding `CC(Oc1ccc2c(-c3ccc(F)cc3Cl)cc(=O)oc2c1)C(=O)C1CCNC1` (stereo not shown) [Compound A-1-10-1-35], the IC50 is 100 to 1000 nM. `CC(Oc1ccc2c(-c3ccc(F)cc3Cl)cc(=O)oc2c1)C(=O)C1CCOCC1` (stereo not shown) [Compound A-1-10-1-39]: the half-inhibitory concentration (IC50) is < 20 nM.

For the compound `CC(Oc1ccc2c(-c3ccc(F)cc3Cl)cc(=O)oc2c1)C(=O)c1ccc2[nH]ccc2c1` (stereo not shown) [Compound A-1-11-1-1], the IC50 was in the range of 20 to 100 nM.

In the case of `CC(Oc1ccc2c(-c3ccc(F)cc3Cl)cc(=O)oc2c1)C(=O)c1ccc2c(c1)OCO2` (stereo not shown) [Compound A-1-11-1-10], the IC50 fell in the range of 100 to 1000 nM. Still for that read-out and setting: next, `CC(Oc1ccc2c(-c3ccc(F)cc3Cl)cc(=O)oc2c1)C(=O)c1ccc2c(c1)OCCO2` (stereo not shown) [Compound A-1-11-1-13]: 100 to 1000 nM; `CC(Oc1ccc2c(-c3ccc(F)cc3Cl)cc(=O)oc2c1)C(=O)C12CC3CC(CC(C3)C1)C2` (stereo not shown) [Compound A-1-12-1-27]: 100 to 1000 nM.

Staying with this assay, now noted: Homo sapiens, A2780, 168 h.
Consider `CC(Oc1ccc2c(-c3ccc(F)cc3Cl)cc(=O)oc2c1)C(=O)C1CCN(CC(=O)O)CC1` (stereo not drawn) [α-12], for which the IC50 was in the range of 100 to 1000 nM.
